In the supplement of paper PMC11061612:

Legend:
[1] = system: SK-MM-2 (Plasma Cell Myeloma); experiment: combination Emax (second highest fraction inhibited in the dose matrix, 72 h); higher = more inhibition; extreme values may be limits of the assay
Summary of the method: (§1)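 After 24 hours at 37°C and 5% CO2 in 1536-well plates, cells in DMEM/F12 or RPMI plus 10% FBS received two-drug dose matrices for 72 hours. Viability came from CellTiter-Glo 2.0 luminescence and was scaled as inhibition, anchored at 0 by vehicle wells and at 1 by blank wells. Combination Emax is taken as the second-highest inhibition in the matrix, and Bliss excess as the observed combination effect less EA + EB − EA·EB, with EA and EB the single-agent effects.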

CHL-1 (Melanoma) [2] = experiment: as above
Summary of the method: as §1

[3] = system: NCI-H810 (Non-Small Cell Lung Carcinoma); experiment: as above
Summary of the method: as §1

[4] = system: PC-14 (Lung Adenocarcinoma); experiment: as above
Summary of the method: as §1

[5] = system: EB-3 (Burkitt's Lymphoma); experiment: as above
Summary of the method: as §1

[6] = system: OV-90 (Ovarian Carcinoma); experiment: as above
Summary of the method: as §1

[7] = system: COLO-684 (Endometrial Carcinoma); experiment: as above
Summary of the method: as §1

[8] = system: SW684 (Other Solid Carcinomas); experiment: as above
Summary of the method: as §1

[9] = system: CML-T1 (Chronic Myelogenous Leukemia); experiment: as above
Summary of the method: as §1

[10] = system: Becker (Low Grade Glioma); experiment: as above
Summary of the method: as §1

[11] = system: KYSE-70 (Esophageal Squamous Cell Carcinoma); experiment: as above
Summary of the method: as §1

[12] = system: FLO-1 (Esophageal Adenocarcinoma); experiment: as above
Summary of the method: as §1

[13] = system: PANC-02-03 (Pancreatic Carcinoma); experiment: as above
Summary of the method: as §1

[14] = system: LOUCY (T-Lymphoblastic Leukemia); experiment: as above
Summary of the method: as §1

KYM-1 (Rhabdomyosarcoma) [15] = experiment: as above
Summary of the method: as §1

[16] = system: HCC-44 (Lung Adenocarcinoma); experiment: as above
Summary of the method: as §1

[17] = system: NCI-H1755 (Lung Adenocarcinoma); experiment: as above
Summary of the method: as §1

[18] = system: NKM-1 (Acute Myeloid Leukemia); experiment: as above
Summary of the method: as §1

[19] = system: RMG-I (Ovarian Carcinoma); experiment: as above
Summary of the method: as §1

[20] = system: LAMA-84 (Chronic Myelogenous Leukemia); experiment: as above
Summary of the method: as §1

[21] = system: SK-MM-2 (Plasma Cell Myeloma); experiment: Bliss excess, mean over the matrix (fraction); higher = more synergy
Summary of the method: as §1

CHL-1 (Melanoma) [22] = experiment: as above
Summary of the method: as §1

[23] = system: NCI-H810 (Non-Small Cell Lung Carcinoma); experiment: as above
Summary of the method: as §1

[24] = system: PC-14 (Lung Adenocarcinoma); experiment: as above
Summary of the method: as §1

[25] = system: EB-3 (Burkitt's Lymphoma); experiment: as above
Summary of the method: as §1

[26] = system: OV-90 (Ovarian Carcinoma); experiment: as above
Summary of the method: as §1

[27] = system: COLO-684 (Endometrial Carcinoma); experiment: as above
Summary of the method: as §1

[28] = system: SW684 (Other Solid Carcinomas); experiment: as above
Summary of the method: as §1

[29] = system: CML-T1 (Chronic Myelogenous Leukemia); experiment: as above
Summary of the method: as §1

[30] = system: Becker (Low Grade Glioma); experiment: as above
Summary of the method: as §1

[31] = system: KYSE-70 (Esophageal Squamous Cell Carcinoma); experiment: as above
Summary of the method: as §1

[32] = system: FLO-1 (Esophageal Adenocarcinoma); experiment: as above
Summary of the method: as §1

[33] = system: PANC-02-03 (Pancreatic Carcinoma); experiment: as above
Summary of the method: as §1

[34] = system: LOUCY (T-Lymphoblastic Leukemia); experiment: as above
Summary of the method: as §1

KYM-1 (Rhabdomyosarcoma) [35] = experiment: as above
Summary of the method: as §1

[36] = system: HCC-44 (Lung Adenocarcinoma); experiment: as above
Summary of the method: as §1

[37] = system: NCI-H1755 (Lung Adenocarcinoma); experiment: as above
Summary of the method: as §1

[38] = system: NKM-1 (Acute Myeloid Leukemia); experiment: as above
Summary of the method: as §1

[39] = system: RMG-I (Ovarian Carcinoma); experiment: as above
Summary of the method: as §1

[40] = system: LAMA-84 (Chronic Myelogenous Leukemia); experiment: as above
Summary of the method: as §1
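Wherever Bliss excess, mean over the matrix is given: after 72 h of two-drug dosing.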

SMILES	combination Emax [1]	combination Emax (CHL-1 (Melanoma) [2])	combination Emax [3]	combination Emax [4]	combination Emax [5]	combination Emax [6]	combination Emax [7]	combination Emax [8]	combination Emax [9]	combination Emax [10]	combination Emax [11]	combination Emax [12]	combination Emax [13]	combination Emax [14]	combination Emax (KYM-1 (Rhabdomyosarcoma) [15])	combination Emax [16]	combination Emax [17]	combination Emax [18]	combination Emax [19]	combination Emax [20]	Bliss excess [21]	Bliss excess (CHL-1 (Melanoma) [22])	Bliss excess [23]	Bliss excess [24]	Bliss excess [25]	Bliss excess [26]	Bliss excess [27]	Bliss excess [28]	Bliss excess [29]	Bliss excess [30]	Bliss excess [31]	Bliss excess [32]	Bliss excess [33]	Bliss excess [34]	Bliss excess (KYM-1 (Rhabdomyosarcoma) [35])	Bliss excess [36]	Bliss excess [37]	Bliss excess [38]	Bliss excess [39]	Bliss excess [40]
N#Cc1cnc(Nc2cc(NC[C@H]3CNCCO3)c(C(F)(F)F)cn2)cn1 [SRA737] + CCc1c2c(nc3ccc(O)cc13)-c1cc3c(c(=O)n1C2)COC(=O)[C@]3(O)CC [SN-38] (first compound max 10 µM, 7x7, partner max 0.3 µM)	0.776	0.807	0.829	0.816	0.828	0.519	0.878	0.459	1	0.865	0.683	0.815	0.674	0.952	0.945	0.904	0.871	0.995	0.484	0.953	0.014	0.0724	0.0918	0.0164	-0.0157	-0.0976	0.0144	-0.0846	-0.0022	-0.0297	0.0857	0.0593	-0.0673	0.102	-0.0207	0.124	-0.0327	-0.0365	-0.0426	-0.023
O=C(c1cc(Cc2n[nH]c(=O)c3ccccc23)ccc1F)N1CCN(C(=O)C2CC2)CC1 [Olaparib] + Cc1c2c(nn1C)CSCc1cc(n(C)n1)CSc1cc(c3ccccc3c1)OCCCc1c(C(=O)O)n(C)c3c-2c(Cl)ccc13 [AZD5991] (first compound max 10 µM, 7x7, partner max 1 µM)	0.111	0.312	0.49	0.0956	0.0218	0.114	0.224	0.0699	0.832	0.22	0.104	0.253	0.128	0.234	0.832	0.117	0.18	1	0.123	0.223	-0.0093	-0.0174	-0.0578	-0.0279	-0.0579	-0.0554	-0.0104	-0.0763	-0.0255	-0.0125	-0.032	-0.0102	-0.0465	-0.0086	0.0435	-0.0267	-0.0215	0.0786	-0.0627	-0.0136
N#Cc1cnc(Nc2cc(NC[C@H]3CNCCO3)c(C(F)(F)F)cn2)cn1 [SRA737] + Nc1ccn([C@@H]2O[C@H](CO)[C@@H](O)C2(F)F)c(=O)n1 [Gemcitabine] (first compound max 10 µM, 7x7, partner max 0.3 µM)	0.708	0.803	0.779	0.806	0.806	0.609	0.657	0.494	1	0.747	0.643	0.908	0.595	0.96	1	0.853	0.775	1	0.402	0.973	0.112	0.0859	0.112	0.0155	0.125	-0.0752	-0.0824	0.0294	0.0539	0.0323	0.0297	0.124	0.0122	0.127	-0.0294	0.149	0.0184	0.0289	-0.042	0.039
Cc1cc2ncnn2cc1Nc1ncc2c(n1)n(C1CCOCC1)c(=O)n2C [AZD7648] + COc1cc([C@@H]2c3cc4c(cc3[C@@H](O[C@@H]3O[C@@H]5CO[C@@H](C)O[C@H]5[C@H](O)[C@H]3O)[C@H]3COC(=O)[C@H]23)OCO4)cc(OC)c1O [Etoposide] (first compound max 10 µM, 7x7, partner max 10 µM)	0.437	0.82	0.598	0.757	0.942	0.399	0.497	0.428	1	0.748	0.168	0.85	0.378	0.968	0.927	0.809	0.486	0.976	0.386	0.948	0.0378	0.0767	-0.079	0.097	0.0374	-0.0525	-0.0174	-0.0208	0.0779	0.096	-0.0437	0.0863	0.0386	0.0421	0.119	0.0009	0.0418	0.106	0.01	0.154
